From PubChem BioAssay (NCI) come the findings set out here.

Holding throughout (test): inhibition of tumour cell growth, NCI panel, 48 h
The subject of test [1] is BT-549 breast.
Test [2] has as its system HCT-116 colon.
For test [3], the system named is HOP-62 NSCLC.
Test [4] concerns HS 578T breast.
The subject of test [5] is MDA-MB-231 breast.
In test [6] the test system is NCI-H23 lung.
For test [7], the system named is NCI-H460 lung.
In test [8] the test system is SF-539 CNS.
Test [9] has as its system SK-OV-3 ovarian.
Test [10] relates to SNB-75 CNS.

Each structure is given as a SMILES string.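 In this assay, cells in 96-well plates receive the compound at five concentrations for 48 hours. Endpoints are linearly interpolated between the surrounding concentrations. The concentration for 50% growth inhibition is given as GI50. At the TGI there is no net growth.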

On to `CC(=O)OCC1OC(n2c(-c3ccc(C)cc3)cc(-c3ccccc3)c(C#N)c2=S)C(OC(C)=O)C(OC(C)=O)C1OC(C)=O` (centres undefined), for which the TGI in test [1], in test [2], in test [3], in test [4], in test [5] and in test [6] was greater than 100 µM each time. For the same molecule, the TGI in test [7], in test [8], in test [9] and in test [10] was greater than 100 µM in each case.
Turning to `Cn1c2ccccc2c(=O)c2cccc(C(=O)NC(CCC(N)=O)C(=O)O)c21` (centres undefined), the TGI in test [1], in test [2], in test [3], in [4], in test [5] and in test [6] was greater than 100 µM each time. Further, the TGI in test [7], in [8], in test [9] and in [10] was greater than 100 µM throughout.
`O=C(NCCCCCCNC(=O)c1cc(-c2ccccc2)nc2ccccc12)c1cc(-c2ccccc2)nc2ccccc12`: the TGI in test [1], in test [2], in test [3], in test [4], in test [5] and in [6] was greater than 100 µM in each case. Besides, the TGI in test [7], in test [8], in test [9] and in test [10] was greater than 100 µM throughout.
For `CC1=C(C(=O)Nc2ccccc2)C2(CCCCC2)C(C#N)=C(SCC(=O)Nc2ccc(Br)cc2)N1`, the TGI turned out to be 33.4 µM in [1]; 8.28 µM in test [2]; 32.6 µM in [3]; 44.9 µM in test [4]; 27.1 µM in test [5]; 23.3 µM in test [6]. In addition, the TGI was determined as 11.4 µM in test [7], 32.9 µM in test [8], 44.5 µM in test [9] and 30.3 µM in [10].
`Cc1ccc(NC(=O)c2cc(S(=O)(=O)Nc3nc4ncccc4[nH]3)c(SSc3cc(Cl)c(C(=O)Nc4ccc(C)cc4)cc3S(=O)(=O)Nc3nc4ncccc4[nH]3)cc2Cl)cc1`: the TGI in [1], in test [2], in test [3], in test [4], in test [5] and in test [6] was greater than 100 µM each time. Besides, the TGI in test [7], in test [8], in [9] and in test [10] was greater than 100 µM in each case.
For the molecule `CC(=O)OCc1ccc2oc(=O)c(C(=O)Oc3ccccc3)cc2c1`, the TGI in test [1] is greater than 100 µM; in [2] it was 30.6 µM; in test [3], greater than 100 µM; in test [4], greater than 100 µM; in [5], 84.2 µM; in test [6] it was greater than 100 µM. For the same molecule, the TGI in [7], in test [8], in test [9] and in test [10] was greater than 100 µM in each case.
With `COC(=O)c1ccccc1C1CN=NC12Cc1cc(C)ccc1C2=O` (centres undefined), the TGI in test [1], in test [2], in test [3], in test [4], in [5] and in [6] was greater than 100 µM throughout. For the same molecule, the TGI in [7], in test [8], in [9] and in [10] was greater than 100 µM in each case.
Take `CC(=O)Nc1c(C)cc2c(nc3n2CCC3O)c1[N+](=O)[O-]` (centres undefined): the TGI in [1], in [2], in test [4], in [5], in test [6] and in [7] was greater than 100 µM throughout. For the same molecule, the TGI in test [8], in test [9] and in [10] was greater than 100 µM each time.
In the case of `O=C1C(Cl)=C(Nc2ccc(S(=O)(=O)Nc3ccccn3)cc2)C(=O)c2ccccc21`, the TGI in [1] was found to be 29.8 µM; in test [2], 18.8 µM; in test [3] it was 29.9 µM; in [4], 48 µM; in [5], 22 µM; in [6], 25.2 µM. Also, the TGI in test [7] was 19.2 µM; in [8] it was 10.3 µM; in [9] it was 43 µM; in test [10] it was 21.9 µM.
For `O=[N+]([O-])c1cc(-c2nc(-c3ccccc3)c(-c3ccccc3)[nH]2)c(O)c([N+](=O)[O-])c1`, the TGI in [1] is 59.8 µM; in [2], 33.4 µM; in test [3] it was 43.4 µM; in [4], greater than 100 µM; in [5], 49.9 µM; in test [6] it was 36.1 µM. Besides, the TGI in [7] came out at 48.3 µM; in [8], 41.5 µM; in test [9], 40.6 µM; in test [10], 60 µM.
For the molecule `CCCCCCCCCCNC(=O)CCC(NC(=O)c1ccc(N(C)Cc2cnc3nc(N)nc(N)c3n2)cc1)C(=O)NCCCCCCCCCC` (centres undefined), the TGI in test [1] is 26.3 µM; in test [2] it was 14 µM; in test [3], greater than 95.7 µM; in [4], 20.8 µM; in test [5] it was 11.3 µM; in test [6], 54.4 µM. Further, the TGI was 13.1 µM in test [7], 15.3 µM in [8], 65.3 µM in [9] and 32.1 µM in test [10].
`CCCCCCCCCCCCC(O)[C@H]1CC[C@H](C(O)CCCCCC(=O)CCCCC2CC(C(C)=O)C(=O)O2)O1` (some centres undefined): the TGI came to 59.5 µM in test [1]; 36 µM in test [2]; 26.6 µM in test [3]; 51.2 µM in test [4]; 44.6 µM in test [5]; 63.8 µM in test [6]. The TGI in test [7] amounted to 22.5 µM; in test [8], 35.6 µM; in test [9], 28 µM; in [10] it was 59.3 µM. Moreover, the GI50 in test [2] is 7.23 µM; in test [4], 4.42 µM; in [5], 2.8 µM; in test [6], 1.72 µM; in [7], 9.67 µM; in [10] it was 7.11 µM.
Turning to `COC(=O)C1(C)C=CC(=O)C2(C)C1C(O)C1OC3CC(c4ccoc4)C(C)=C3C1(C)C2CC(=O)O` (centres undefined), the TGI in test [1], in test [2], in test [4], in [5], in [6] and in test [7] was greater than 100 µM each time. Besides, the TGI in [8], in test [9] and in test [10] was greater than 100 µM throughout.
